Measurements from US12655104B2, “Anticancer compounds selective for ER-positive cancers” (THE BOARD OF TRUSTEES OF THE UNIVERSITY OF ILLINOIS, priority 2020, dated 2026).

Key:
MCF-7 cells = test: Alamar blue fluorescence viability (IC50), MCF-7; assay type: cell-based
Protocol: (§1) Cancer Cell Lines: Culturing Conditions and Validation. All cell lines were cultured at 37° C. with 5% CO2. All ERα-positive cell lines were grown in media lacking phenol red. MCF-7 were grown in EMEM with 10% FBS and 1% penicillin-streptomycin (P/S). T47D were cultured in MEM with 10% FBS and 1% P/S. TYS and TDG cells were grown in MEM supplemented with 10% CD-FBS and 1% P/S. HCT-116 and MDA-MB-231 cells were cultured in RPMI-1640 supplemented with 10% FBS and 1% P/S. MDA-MB-436 cells were cultured in DMEM supplemented with 10% FBS and 1% P/S. HT-29 were cultured in McCoy's media supplemented with 10% FBS and 1% P/S. All cell lines were used directly from ATCC stocks and/or have been further authenticated using PowerPlex16HS Assay (Promega) as described previously.^54 In short, >1 million cells were harvested and lysed using the cell lysis buffer (50 mM Tris, 50 mM EDTA, 25 mM sucrose, 100 mM NaCl, 1% SDS, pH 8). DNA extraction and short tandem repeats (STRs) profiling for each cell line were carried out at the University of Arizona Genetics Core (UAGC). Autosomal STR profiles were compared to reference databases such as ATCC, DSMZ, and JCRB.
(§2) Alamar Blue Fluorescence for Anticancer Activity (IC50). 2,000-15,000 cells per well were seeded a 96-well plate. Cells were allowed to adhere before DMSO stock solutions of test compounds were added to each well with a final concentration of DMSO in each well=1%; final volume: 100 μL. At the end of the desired incubation time (e.g., 24 or 72 hours), media in each well was aspirated and new fresh media (no compound, 100 μL) was added. Alamar blue solution (4 mg resazurin per 40 mL PBS) was then added (10 μL). After 2-6 hours incubation, each well's fluorescence (λexcit.=555 nm, λemission.=585 nm) was measured using a SpectraMax M3 plate reader (Molecular Devices). Percent dead was determined by comparison to a 100% dead control: 100 μM raptinal treated cells. Dose dependent curves and IC50 were calculated using Origin Pro V10.

[1] = test system: anticipatory unfolded protein response (a-UPR); test: a-UPR immunoblotting/western blot in MCF-7 cells; assay type: cell-based
Protocol: a-UPR Immunoblotting/Western Blot Procedure. 400,000 MCF-7 cells/per well were seeded into 6 or 12 well plates and allowed to adhere overnight. Media was then aspirated from each well and then fresh media with diluted test compound (0.1% DMSO concentration) was added accordingly. Cells were incubated for 4 or 6 hours, then harvested. PBS-washed cell pellets were then lysed using RIPA buffer containing phosphatase (BioVision) and protease inhibitor cocktail (Calbiochem). Protein concentrations were determined using the BCA assay (Pierce). Lysates containing 10-15 μg of protein were loaded onto 4-20% gradient gels (BioRad), and SDS-PAGE was run. Proteins were then transferred onto membrane (PDVF Millipore) and blots blocked with BSA solution (2 g in 40 mL TBST) for one hour. After blocking, primary antibody was added and incubated overnight (using manufacturer's recommended dilutions). Following overnight incubation, blots were washed with TBST (5-minute incubation for each wash, washed 3 times), then incubated with HRP-linked secondary antibody for 1 hour in TBST. Blots were washed (10-minute incubation for each wash for a total of two ten-minute washes). SuperSignal West Pico Solution was then added following manufacturer's procedures and blots imaged with ChemiDoc.
Antibodies. […]

[2] = Simulated gastric fluid (SGF) stability assay; assay type: in vitro ADME; details: 100 μM in SGF with pepsin; for half-life at 100 μM: simulated gastric fluid with pepsin, pH 1.2, one-phase decay, read-out: t1/2 (min) (95% CI)
Protocol: Simulated Gastric Fluid (SGF) Stability Assay. SGF was prepared fresh by adding 3.2 g pepsin (Sigma Aldrich P7000) to 1000 mL of SGF (Fischer Scientific 7108-16) and the pH adjusted to 1.2 using a pH meter. This SGFwith pepsin solution was then warmed to 37° C. 990 μL of warmed SGFwith pepsin was then aliquoted into multiple Eppendorf tubes, followed by 10 μL of 10 mM DMSO stock solutions of test compounds. Erythromycin (MedChemExpress HY-B0220) is a positive control for this stability assay. Samples were incubated at 37° C. for the entire experiment with vortexing every 15 minutes. At each desired time point (0, 15, 30, 60, 120 minutes), a 100 μL aliquot is removed and quenched into 50 μL of acetonitrile. Samples are stored at 4° C. until all time points are complete. Samples were then vortexed and then clarified at 3,000 RPM for 10 minutes in a 4° C. centrifuge. Supernatants were collected and compound concentrations determined by LC-MS/MS (UIUC Metabolomics Center, Urbana, IL.). Determined compound concentrations were used to calculate percent remaining compared to t=0 samples.

ERα− cancer cell lines = test: Selectivity of cell killing, ERα+ versus ERα− cancer cell lines; assay type: cell-based; details: MDA-MB-231, HCT-116, HT-29; for potencies against ERα− cancer cell lines (in words): 24- and 72-hour incubations
Protocol: as §1, §2

| % Remaining after 120 min (SD) [2] [%] | half-life at 100 μM [2] [min] | IC50 (MCF-7 cells; Homo sapiens, MCF7, MCF-7, 24 and 72 hr, read-out: IC50 values) [nM] | SMILES | anticancer activity against MCF-7 cells (in words) (MCF-7 cells; MCF-7 cells) | a-UPR activation (P-AMPK, P-EIF2α, cleavage of ATF6α p90), western blot [1] | potencies against ERα− cancer cell lines (in words) (ERα− cancer cell lines) | fold change MCF-7 versus ERα− cell lines (ERα− cancer cell lines) |
| --- | --- | --- | --- | --- | --- | --- | --- |
| – | – | – | O=C1Nc2c(C(F)(F)F)cccc2[C@]1(c1ccc(O)cc1)N1CCC(F)(F)CC1 (single isomer, unassigned) [(S)-2] | devoid of any activity | No activation of the a-UPR | – | – |
| 0±0 | 10 | – | O=C1Nc2c(C(F)(F)F)cccc2[C@@]1(c1ccc(O)cc1)N1CCCC(F)(F)C1 [(R)-23, (R)-3-(3,3-difluoropiperidin-1-yl)-3-(4-hydroxyphenyl)-7-(trifluoromethyl)indolin-2-one] | – | – | double-digit micromolar | – |
| 20±1 | 62 | – | O=C1Nc2c(C(F)(F)F)cccc2[C@@]1(c1ccc(O)cc1)N1CCC(F)(F)C1 [(R)-24, (R)-3-(3,3-difluoropyrrolidin-1-yl)-3-(4-hydroxyphenyl)-7-(trifluoromethyl)indolin-2-one] | – | – | double-digit micromolar | – |
| 27±1 | 77 | 4 to 5 | O=C1Nc2c(C(F)(F)F)cccc2[C@@]1(c1ccc(O)cc1)N1CC(F)(F)C(F)(F)C1 [Compound (R)-26, (R)-3-(4-hydroxyphenyl)-3-(3,3,4,4-tetrafluoropyrrolidin-1-yl)-7-(trifluoromethyl)indolin-2-one] | – | – | double-digit micromolar | ≥ 3500 |
